{
  "source": "patent US20140030368A1",
  "about": "“COMPOSITION FOR PREVENTING OR TREATING A RESPIRATORY DISEASE CONTAINING A MIXED HERBAL EXTRACT OF CNIDIUM OFFICINALE ROOT AND POLYGONI CUSPIDATI ROOT” (WHANIN PHARMACEUTICAL CO., LTD., priority 2011, published 2014)",
  "key": {"[1]": {"assay": "Test for expectorant activity (phenol red in trachea)", "type": "in vivo, mice", "protocol": "Using the method of Engler et al. ([…]. Pharmacol. […] Jian-Hua Shang et al, J. Ethnopharmacology, 129, 293-298, 2010), the expectorant activity of the extract of the present invention was measured. […] Orientbio, Korea) were divided into groups, each consisting of 10 mice. […] After 30 minutes, the mice were subjected to cervical dislocation, and blood was discharged from the abdominal aorta, after which the trachea was completely excised. The isolated trachea was cold-stored in 1 ml of physiological saline."}, "[2]": {"tested_on": "croton oil-induced ear edema", "assay": "Croton oil-induced ear edema", "type": "in vivo, mice", "details": "oral dose 100 mg/kg", "protocol": "When croton oil is applied to the skin, an inflammatory reaction occurs to produce redness, a swelling and a blister on the applied surface (Archives of Pharmacal Research, 1993, 16[1], 18-24).\nAs experimental animals, male ICR mice (weighed 20-23 g; Orientbio, Korea) were divided into groups, each consisting of 10 mice. Each of the test samples and the comparative drug COX-2 inhibitor Celecoxib (100 mg/kg, Pfizer) was orally administered into the mice which have been fasted for one day, and after 1 hour, a solution of 3% croton oil in acetone was applied uniformly to the inner and outer sides of the right ear of each mouse to induce ear edema."}, "5-lipoxygenase": {"molecular_target": "T1, 5-lipoxygenase (Rattus norvegicus, UniProt P12527)", "T1 construct": "rat basophilic leukemia cells (RBL-1) were stabilized using serum-free RPMI medium; endogenous in cells; host or cells: RBL-1 (rat basophilic leukemia cells)", "T1 sequence (P12527 whole entry)": "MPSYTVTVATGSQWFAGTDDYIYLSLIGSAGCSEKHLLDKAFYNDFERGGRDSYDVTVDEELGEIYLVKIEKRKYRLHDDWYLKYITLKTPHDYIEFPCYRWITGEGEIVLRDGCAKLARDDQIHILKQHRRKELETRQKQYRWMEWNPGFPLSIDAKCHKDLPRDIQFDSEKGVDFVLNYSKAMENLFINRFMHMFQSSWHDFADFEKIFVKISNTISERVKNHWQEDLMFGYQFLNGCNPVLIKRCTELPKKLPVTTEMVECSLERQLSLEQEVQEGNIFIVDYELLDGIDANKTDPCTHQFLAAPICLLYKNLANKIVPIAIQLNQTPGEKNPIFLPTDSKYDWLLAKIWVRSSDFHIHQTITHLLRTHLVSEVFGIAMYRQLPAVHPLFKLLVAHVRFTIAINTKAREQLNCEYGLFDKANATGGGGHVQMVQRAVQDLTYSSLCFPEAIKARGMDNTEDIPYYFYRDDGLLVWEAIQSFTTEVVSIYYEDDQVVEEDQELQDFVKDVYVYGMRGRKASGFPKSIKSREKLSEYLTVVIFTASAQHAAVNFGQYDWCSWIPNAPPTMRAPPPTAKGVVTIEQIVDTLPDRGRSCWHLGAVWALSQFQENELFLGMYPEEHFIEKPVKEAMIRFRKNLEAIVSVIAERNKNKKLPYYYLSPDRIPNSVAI", "assay": "5-Lipoxygenase inhibitory activity (leukotriene production in RBL-1 cells, cysteinyl leukotriene EIA)", "type": "cell-based", "details": "RBL-1, read-out: 5-lipoxygenase inhibition rate(%)", "protocol": "Specifically, rat basophilic leukemia cells (RBL-1) were stabilized using serum-free RPMI medium at 37° C., and each of the extracts and arachidonic acid as a substrate were added thereto and incubated for 15 minutes to produce leukotriene. The amount of the produced leukotriene was measured using a cysteinyl leukotriene EIA kit. As comparative drugs, the 5-lipoxygenase inhibitors zileuton and montelukast were used."}, "[3]": {"tested_on": "extracted bronchi of guinea pigs", "assay": "Test for bronchoconstriction (in vitro), ovalbumin-induced constriction of isolated sensitized bronchi", "details": "Cavia porcellus, read-out: Bronchoconstriction inhibition rate(%)", "quoted_text": "The comparative drug rolipram was used at a concentration of 20 μM, and each of the extracts was used at a concentration of 0.3 mg/ml.\nSpecifically, Hartely male guinea pigs (400-500 g, BGI, Korea) were sensitized by intravenous injection with 2 ml/kg of anti-ovalbumin anti-serum. At 48 hours after sensitization, the guinea pigs were sacrificed and the bronchi were extracted therefrom. Then, other tissues attached to the bronchi were removed using a tyrode solution, and each of the bronchi was cut in a ring shape containing 2-3 cartilages. Then, the cartilage portion of the ring was excised while the bronchial muscle was preserved. Then, a string was connected to both sides of each bronchus which was then suspended in an organ bath and stabilized for a predetermined time. Then, 10 μg/ml of carbachol was added to induce the maximum constriction of the bronchi which were then washed with a tyrode solution and stabilized. Next, 5 μM of indomethacin was added to each bronchus, and after 1 minute, each of the extracts was added to each bronchi, and after 5 minutes, 20 μg/ml of ovalbumin was added to induce bronchoconstriction. […] The relaxation of the bronchi was measured using a physiological activity meter connected (powerlab 8/30, AD Instrument) with a force transducer (WPI)."}, "[4]": {"tested_on": "leukocytes in the bronchoalveolar lavage", "assay": "Test for inhibition of bronchial inflammation, leukocytes in bronchoalveolar lavage of ovalbumin-sensitized mice", "type": "in vivo", "details": "oral 10 mg/kg b.i.d.", "quoted_text": "Specifically, BALB/c female mice (6.5 weeks old, SLC, Japan) were sensitized by intraperitoneal administration of 0.2 ml of a 1:1 mixture of 10 μg of ovalbumin (OVA, Sigma) and 4 mg of aluminum hydroxide (Alum, Pierce) at days 0, 7 and 14. At 8 days and 10 days after the final sensitization, aerosol prepared from 1.0% ovalbumin using high-pressure compressed air was sprayed into the mice for 50 minutes to induce airway inflammation. As a comparative drug, 10 mg/kg of rolipram (Sigma) was used. The comparative drug and the test materials were orally administered twice (morning and evening) a day during a period ranging from 21 days to 23 days after the first sensitization. At 24 hours after the final induction of inflammation, the bronchoalveoli were laved with 1.5 ml of phosphate buffered saline (pH 7.2) to collect a bronchoalveolar lavage. The number of leukocytes in the lavage was counted using a hematology analyzer (Drew Scientific Inc., HEMAVET HV950FS, M-950HV)."}, "[5]": {"tested_on": "citric acid-induced coughing", "assay": "Test for antitussive activity (citric acid-induced coughing)", "type": "in vivo, guinea pigs", "details": "Oral dose 50 mg/kg", "protocol": "In order to evaluate the antitussive activity of the extract of the present invention (American Journal of Respiratory and Critical Care Medicine, 1998, 158 [1], 42-48), the extract of Example 2 was administered into guinea pigs, and then citric acid was sprayed into the guinea pig to induce coughing, after which the number of coughs was measured. Citric acid is frequently used in studies on the activity of airway sensory nerves, and the inhalation of citric acid causes bronchoconstriction, nasal stimulation, coughing, bronchial hypersensitivity and the like.\nSpecifically, as experimental animals, Hartely male guinea pigs (weighed 350-400 g; Orientbio, Korea) were divided into groups, each consisting of 10-12 animals. Each of the extract of Example 2 and 50 mg/kg of the comparative drug theobromine (Sigma) was administered orally into the grouped mice which have been fasted for one day. After 1 hour, 0.3M citric acid as a cough inducer was sprayed into the animals to induce coughing."}},
  "data": [
    {"smiles": "Nc1c(Br)cc(Br)cc1CN[C@H]1CC[C@H](O)CC1", "note": "[Ambroxol, ambroxol]", "values": [
      {"measurement": "Expectorant activity (%)", "setting": "[1]; Oral dose 250 mg/kg", "value": 27, "unit": "%"}
    ]},
    {"smiles": "Cc1ccc(-c2cc(C(F)(F)F)nn2-c2ccc(S(N)(=O)=O)cc2)cc1", "note": "[Celecoxib]", "values": [
      {"measurement": "Ear edema inhibition rate (%)", "setting": "[2]", "value": 17, "unit": "%"}
    ]},
    {"smiles": "[Cl-].[Cl-].[Mg+2]", "note": "[Magnesium chloride]", "values": [
      {"measurement": "Expectorant activity (%)", "setting": "[1]; Oral dose 500 mg/kg", "value": 33, "unit": "%"}
    ]},
    {"smiles": "CC(c1cc2ccccc2s1)N(O)C(N)=O", "note": "(stereo not shown) [Zileuton, zileuton]", "values": [
      {"measurement": "inhibition at 1 µM", "setting": "5-lipoxygenase", "value": 63, "unit": "%"}
    ]},
    {"smiles": "COc1ccc(C2CNC(=O)C2)cc1OC1CCCC1", "note": "(stereo not shown) [rolipram]", "values": [
      {"measurement": "inhibition at 20 µM", "setting": "[3]", "value": 62, "unit": "%"},
      {"measurement": "Inhibition rate (%) of pulmonary bronchial inflammation", "setting": "[4]", "value": 22, "unit": "%"}
    ]},
    {"smiles": "Cn1cnc2c1c(=O)[nH]c(=O)n2C", "note": "[theobromine]", "values": [
      {"measurement": "Cough inhibition rate (%)", "setting": "[5]", "value": 36, "unit": "%"}
    ]}
  ]
}
